Reference: patent publication US7825278B2, “Substituted enaminones, their derivatives and uses thereof” (The Regents of the University of California, priority 2004, dated 2010)

target: GABAA receptor complex (GRC); test: [35S]TBPS binding assay (In Vitro Binding Assay 1); conditions: rat cortex P2 homogenate; 2 nM [35S]TBPS; 90 min at 25° C.
Method: [^35S]TBPS binding assay. The cortex from male Sprague-Dawley rats (weighing 160-200 g) was removed immediately after decapitation and dissected over ice. A P2 homogenate was prepared for binding assay as previously described (Gee, Mol. Pharmacol. 30: 218-225, 1986.). The tissue was homogenized in 0.32 M sucrose (J. T. Baker Chemical Co., Phillipsburg, N.J., USA) with a Teflon-coated pestle, followed by centrifugation at 1,000×g for 10 min. The supernatant was collected and centrifuged at 9,000×g for 20 min. The resultant P2 pellet was resuspended in ice-cold 50 mM sodium potassium phosphate (J. T. Baker) buffer (pH 7.4) containing 200 mM NaCl (J. T. Baker) and used immediately in binding assays. A 2 nM concentration of [^35S]TBPS (86 Ci/mmol; New England Nuclear, Boston, Mass., USA) was incubated with 100 μl of tissue homogenate (10% w/v) in the presence or absence of 5 μM GABA (Sigma Chem. Co., St. Louis, Mo.) and 5 μl aliquots of test drug dissolved in dimethyl sulfoxide (Sigma Chem. Co.) (≦10 μl of solvent used in all assays). At the concentration (≦1%) used, dimethyl sulfoxide had no effect on specific [^35S]TBPS binding. All assays were brought to a final volume of 1 ml with 50 mM sodium potassium phosphate buffer (pH 7.4) containing 200 mM NaCl. Non-specific binding was defined as binding in the presence of 2 μM TBPS (NEN, Boston, Mass.) and accounted for ˜30% of the total binding. Assays were terminated after a 90-min steady-state incubation at 25° C. by rapid filtration through glass fiber filters (no. 32; Schleicher & Schuell, Keene, N.H.). Filter-bound radioactivity was quantified by liquid scintillation spectrophotometry. The data were evaluated by nonlinear regression (GraphPad, Inc., San Diego, Calif.) to obtain IC50 (concentration at which half-maximal inhibition of radioligand occurs) values.

SMILES | IC50 | Imax (inhibition of [^35S]TBPS binding)
CCCNC(=O)C(=CNc1ccc(C)cc1)C(=O)c1ccccc1C [2-methyl-α-[[(4-methylphenyl)amino]methylene]-β-oxo-N-propyl-benzenepropanamide] | 100 nM | 100%
CCOC(=O)C(=CNc1ccccc1Cl)C(=O)c1ccccc1Cl [ethyl 2-chloro-α-[[(2-chlorophenyl)-amino]methylene]-β-oxobenzenepropionate] | 420 nM | 100%
CCOC(=O)C(=CNc1ccc(C#N)cc1)C(=O)c1ccccc1Cl [ethyl 2-chloro-α-[[(4-cyanophenyl)-amino]methylene]-β-oxobenzenepropionate] | 60 nM | 100%
C#Cc1ccc(NC=C(C(=O)OCC)C(=O)c2ccccc2Cl)cc1 [ethyl 2-chloro-α-[[(4-ethynylphenyl)-amino]methylene]-β-oxobenzenepropionate] | 10 nM | 95%
CCOC(=O)C(=CNc1ccc(I)cc1)C(=O)c1ccccc1Cl [ethyl 2-chloro-α-[[(4-iodophenyl)-amino]methylene]-β-oxobenzenepropionate] | 20 nM | 86%

More lines, now with the values ahead:

IC50 | Imax (inhibition of [^35S]TBPS binding) | SMILES
200 nM | 81% | CCOC(=O)C(=CNc1ccc(F)cc1)C(=O)c1cccc2ccccc12 [ethyl α-[(4-fluorophenyl)amino]methylene]-β-oxo-1-naphthalenepropionate]
20 nM | 95% | C#Cc1ccc(NC=C(C(=O)NCCC)C(=O)c2ccccc2C)cc1 [α-[[(4-ethynylphenyl)amino]methylene]-2-methyl-β-oxo-N-propyl-benzenepropanamide]
